Reference: ChEMBL document CHEMBL4411297, “Discovery, synthesis and anti-atherosclerotic activities of a novel selective sphingomyelin synthase 2 inhibitor” (Eur J Med Chem, 2019)
Calls of active or inactive are those of the source. The calls are words filed in the database; no cut-off is given here.

Key:
[1] = target: T1, Phosphatidylcholine:ceramide cholinephosphotransferase 2 (Homo sapiens, UniProt Q8NHU3); test: Inhibition of SMS2 (unknown origin) over-expressed in H5 insect cell lysate using C6-NBD-Ceramide and DMPC as substrates preincubated for 30 mins followed by substrate addition and measured after 2 hrs by TLC or HPLC method; type: subcellular
T1 sequence (Q8NHU3 whole entry): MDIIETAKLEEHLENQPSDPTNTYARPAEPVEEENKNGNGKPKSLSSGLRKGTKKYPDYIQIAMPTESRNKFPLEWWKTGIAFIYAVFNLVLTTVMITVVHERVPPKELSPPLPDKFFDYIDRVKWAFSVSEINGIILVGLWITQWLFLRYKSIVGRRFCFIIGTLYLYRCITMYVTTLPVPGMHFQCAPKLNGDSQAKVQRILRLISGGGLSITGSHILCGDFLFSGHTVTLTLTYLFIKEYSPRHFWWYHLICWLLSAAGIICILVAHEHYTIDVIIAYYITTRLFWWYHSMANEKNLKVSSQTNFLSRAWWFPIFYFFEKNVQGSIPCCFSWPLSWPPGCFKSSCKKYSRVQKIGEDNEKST

[2] = Inhibition of SMS (unknown origin); set-up: species or system Homo sapiens
[3] = target: T2, Phosphatidylcholine:ceramide cholinephosphotransferase 2 (Homo sapiens) (UniProt Q8NHU3); test: Inhibition of SMS2 (unknown origin) over-expressed in H5 insect cell lysate at 100 uM using C6-NBD-Ceramide and DMPC as substrates preincubated for 30 mins followed by substrate addition and measured after 2 hrs by TLC or HPLC method relative to control; type: subcellular
T2 sequence (whole entry): T1 sequence (Q8NHU3 whole entry)

| Compound | IC50 [1] | IC50 [2] | inhibition [3] |
| --- | --- | --- | --- |
| Cc1ccc(F)cc1COc1ccccc1C(=O)Nc1cccnc1 | 740 nM | – | – |
| COc1ccc(OC)c(COc2ccccc2C(=O)Nc2cccnc2)c1 | 2800 nM | – | – |
| O=C(Nc1cccnc1)c1ccccc1OCc1ccccc1OCCCCCCl | 670 nM | – | – |
| S=C(S)O[C@@H]1C[C@H]2C[C@@H]1[C@H]1CCC[C@@H]21 | – | 177000 to 600000 nM | – |
| Cc1cccc(C)c1COc1ccccc1C(=O)Nc1cccnc1 | 890 nM | – | – |
| N#Cc1cccc(COc2ccccc2C(=O)Nc2cccnc2)c1 | 60700 nM | – | – |
| N#CC(Nc1ccccc1)c1ccccc1OCc1ccccc1 (configuration not stated) | – | – | 75% |
| CCCCCCCOc1ccc(Cl)cc1COc1ccccc1C(=O)Nc1cccnc1 | 430 nM | – | – |
| c1ccc(COc2ccccc2CNc2ccccc2)cc1 | – | – | inactive |
| O=C(Nc1ccccc1)c1ccccc1OCc1ccccc1 | 13400 nM | – | 69% |
| NC(=O)C(Nc1ccccc1)c1ccccc1OCc1ccccc1 (configuration not stated) | – | – | 39% |
| c1ccc(COc2ccccc2C(Nc2ccccc2)c2nnn[nH]2)cc1 (configuration not stated) | – | – | inactive |
| CC(C#N)(Nc1ccccc1)c1ccccc1OCc1ccccc1 (configuration not stated) | 34000 nM | – | 58% |
| O=C(NCc1ccccc1)c1ccccc1OCc1ccccc1 | 34200 nM | – | – |
| O=C(NC1CCCCC1)c1ccccc1OCc1ccccc1 | 43400 nM | – | – |
| O=C(Nc1cccnc1)c1ccccc1OCc1ccccc1OCCCCCCCl | 470 nM | – | – |
| COc1ccc(Cl)cc1COc1ccccc1C(=O)Nc1cccnc1 | 670 nM | – | – |
| CCCCCCOc1ccc(Cl)cc1COc1ccccc1C(=O)Nc1cccnc1 | 520 nM | – | – |
| O=C(NC1CCCNC1)c1ccccc1OCc1ccccc1Cl (configuration not stated) | > 100000 nM | – | – |
| O=C(NCc1ccco1)c1ccccc1OCc1ccccc1 | 49000 nM | – | – |

Now from value to molecule:

| IC50 [1] | IC50 [2] | inhibition [3] | Compound |
| --- | --- | --- | --- |
| 2100 nM | – | – | O=C(Nc1cccnc1)c1ccccc1OCc1ccccc1C(F)(F)F |
| 3800 nM | – | – | Cc1c(Cl)cccc1COc1ccccc1C(=O)Nc1cccnc1 |
| 690 nM | – | – | O=C(Nc1cccnc1)c1ccccc1OCc1c(Cl)cccc1Cl |
| 990 nM | – | – | O=C(Nc1cccnc1)c1ccccc1OCc1cc(Cl)ccc1Cl |
| 1300 nM | – | – | O=C(Nc1cccnc1)c1ccccc1OCc1ccccc1OCCCCCl |
| 31800 nM | – | – | N#Cc1ccccc1COc1ccccc1C(=O)Nc1cccnc1 |
| 1100 nM | – | – | O=C(Nc1cccnc1)c1ccccc1OCc1ccccc1Cl |
| 740 nM | – | – | O=C(Nc1cccnc1)c1ccccc1OCc1cc(F)ccc1Cl |
| 1100 nM | – | – | Cc1ccc(Cl)cc1COc1ccccc1C(=O)Nc1cccnc1 |
| 3200 nM | – | – | O=C(Nc1cccnc1)c1ccccc1OCc1ccccc1 |
